Literature values in patent US7662360B2, “Conjugates of N-hydroxypropymethacrylamide-methacrylate copolymer with nuclide activation agent and/or anti-cancer compounds” (Psimei Pharmaceuticals PLC, priority 2002, dated 2010).

Conditions: dose BPA 900-1200 mg/kg (30 mg/ml), CuTCPH 200 mg/kg (6 mg/ml), BSH dose not given

Compound | Absolute tumour concentration [µg/g]
N[C@@H](Cc1ccc(B(O)O)cc1)C(=O)O [BPA, 4-dihydroxyborylphenylalanine] | 16.5
sodium mnercaptoundecahydrododecaborate [BSH] | 6.9
